This is an account of results in article PMC6100073, “Activation of Anthracene Endoperoxides in Leishmania and Impairment of Mitochondrial Functions” (Molecules : A Journal of Synthetic Chemistry and Natural …, 2018).

One test has as its system LtP. As to the kind of experiment: Uncoupling of LtP respiration in presence of oligomycin (OxoPlates). It counts as cell-based, Leishmania tarentolae. Conditions: 38 µM Oligo; for uncoupling effect (recovery of O2 consumption in the presence of Oligo): 0.31–5.0 µM CCCP or 12.5–200.0 µM other compounds. The protocol:
The uncoupling experiments using OxoPlates were carried out in analogy to oxygen consumption measurements of LtP. An oligomycin (Oligo) premix in aBHI was prepared leading to a final concentration of 38 µM oligomycin (Oligo). Each well of the second row was filled with 50 µL of aBHI. From the third row on, each well was filled with 50 µL of the Oligo premix and to the fourth row additional 50 µL Oligo premix was added. The respective amounts of the substances (Ac, AQ, AcEP1117, AcEP1118, AcEP1129, AcEP1130, CCCP) were added and a serial 1:2 dilution was performed. Measurements were carried out as described above. The oxygen consumption rates were normalized to the wells that contained only LtP. For each concentration measurements were done in triplicates.

In test [1] the test system is Leishmania donovani promastigotes (LdP). As to the kind of experiment: MTS-PMS viability assay in Leishmania donovani promastigotes. It counts as cell-based. The conditions noted are these: endpoint at 48 h, 5 × 10^5 LdP/mL, read-out: IC50 (µM) Mean ± SD LdP. As for the experimental part:
Leishmania donovani (PS14) were originated from the splenic aspirate of a patient with visceral leishmaniasis. Typing of the species was done by a restriction fragment length polymorphism (RFLP) method. The parasites were cultivated in M199 medium supplemented with 20% FBS, penicillin G (50,000 IU/L), streptomycin (50 mg/L), and hemin (5 µM) at 24 °C for transformation. After 1–2 weeks, the successfully transformed parasites (Leishmania donovani promastigotes, LdP) were transferred to M199 medium supplemented with 10% FBS, penicillin G (50,000 IU/L), streptomycin (50 mg/L), and hemin (5 µM) in 12.5 cm^2 flasks (HiMedia, Mumbai, India) at 24 °C. The cells were sub-cultured every 48–72 h, 1 × 10^6 cells/mL being the inoculum.
The antileishmanial activity of anthracene endoperoxides (AcEPs) in LdP was established in promastigotes, and cell viability was measured using the modified MTS-PMS assay. Briefly, log phase promastigotes (1 × 10^5 cells/200 µL of Schneider‘s medium/well) were incubated with AcEPs (0–100 µM) for 48 h, and afterwards, parasite viability was measured. For this, MTS (2.0 mg/mL) and PMS (0.92 mg/mL) were added in a ratio of 5:1 (20 µL/well), and plates were incubated for 3 h at 37 °C; resultant absorbance was measured at 490 nm in a spectrofluorimeter (Merilyzer EIaQuant, Meril Life Sciences, Gujarat, India). The mean percent viability was calculated as follows: mean specific absorbance of treated parasites/mean specific absorbance of untreated parasites × 100. Results were expressed as IC50 values. These were enumerated by graphical extrapolation using Graph pad Prism software (version 5).
On the technique in general: Tetrazolium assays rely on reduction of a dye to a coloured formazan, in cell work by metabolically active cells.

The term IC50 denotes the concentration that inhibits the measured activity by half.

Where two headings read alike, the source gives them in different places.

Take `O=C1c2ccccc2C(=O)c2ccccc21` [AQ, anthraquinone, reference compound]: the “uncoupling effect (recovery of O2 consumption in the presence of Oligo)” value (“uncoupling effect” for short) with LtP is “Neither Ac nor AQ displayed an uncoupling effect”. Same read-out and setting: to `c1ccc2cc3ccccc3cc2c1` [Ac, anthracene] belongs “Neither Ac nor AQ displayed an uncoupling effect”.

For the molecule `c1ccc2c(c1)C1OOC2c2ccccc21` [AcEP1117, 9,10-dihydro-9,10-epidioxidoanthracene], in test [1] (Leishmania donovani, 48 h), the IC50 worked out at 2.65 ± 0.34 µM. For the same molecule, the “uncoupling effect” value with LtP is listed as “no strong uncoupling was observed except for AcEP1117 at 200 µM”.

For the molecule `CC12OOC(C)(c3ccccc31)c1ccccc12` [AcEP1118, 9,10-dimethyl-9,10-dihydro-9,10-epidioxidoanthracene], in test [1] (Leishmania donovani, 48 h), the IC50 stood at 4.1 ± 0.94 µM. In the case of `CC12OOC(c3ccccc31)c1ccccc12` [AcEP1129, 9-methyl-9,10-dihydro-9,10-epidioxidoanthracene], the IC50 in test [1] (Leishmania donovani, 48 h) is 4.21 ± 0.36 µM. Moreover, the “concentration at which regain of oxygen consumption (uncoupling) is visible” value in the test on LtP (declines at higher concentrations) was determined as 25 µM. In addition, the “uncoupling effect” value in the test with LtP is on record as “a trend for uncoupling was observed at lower concentrations”.

`CCc1ccc2c(c1)C1OOC2c2ccccc21` (centres unmarked) [AcEP1130, 2-ethyl-9,10-dihydro-9,10-epidioxidoanthracene]: the IC50 in test [1] (Leishmania donovani, 48 h) was 39.5 ± 3.48 µM. As to `N=C(N)c1ccc(OCCCCCOc2ccc(C(=N)N)cc2)cc1` [Pen, pentamidine, reference compound], the half-inhibitory concentration (IC50) in test [1] (Leishmania donovani, 48 h) was under 1 µM; in test [1] it was 0.55 ± 0.11 µM.
